The numbers were not newly measured in US20180289729A1, “COMBINATION THERAPY FOR TREATMENT OF HUMAN NEURODEGENERATIVE DISEASES” (priority 2017, published 2018), which cites them from elsewhere.

The subject of data set [1] is proliferating neural stem and progenitor cells within the hippocampal dentate gyrus. The note with it: both young and "old" mice models.
The next data set deals with hippocampal neurogenesis. Particulars: rat models.

In the case of `Cc1cccc(-c2n[nH]cc2-c2ccc3ncccc3n2)n1` [2-(3-(6-methylpyricin-2-yl)-1H-pyrazol-4-yl)-1,5-naphthyridine], the “increase in the number of proliferating neural stem and progenitor cells within the hippocampal dentate gyrus” value in data set [1] was “two-fold increase”.

For the compound `CCCCCCC(C)(C)c1cc(O)c2c(c1)OC(C)(C)[C@@H]1CC=C(CO)C[C@@H]21` [[(6aR)-trans-3-(1,1-dimethylheptyl)-6a, 7,10,10a-tetrahydro-1-hydroxy-6,6-dimethyl-6H-dibenzo [b,d]pyran-9-methanol]], the “effect on hippocampal neurogenesis” value with hippocampal neurogenesis is “dramatic effect”.
